From patent US20260240755A1, “Use Of Plant Cell Suspension Extracellular Vesicle-Derived Small Rnas As Cosmetic Active Ingredient” (ACTV BiYOTEKNOLOJi LABORATUVAR SANAYi VE TiCARET ANONiM …, priority 2023, published 2026)

Legend:
[1] = tested on: H. cordata cell suspension; experiment: Elicitor effect on amount of small RNA from cell suspension EVs; type: cell-based, Houttuynia cordata; conditions: for amount of RNA obtained from nutrient medium EVs compared to the control group: elicitor added on the 14th day, 0.2-0.8 mM, 1-3 days
[2] = tested on: H. cordata cell suspension; experiment: Elicitor effect on cell suspension biomass (lyophilized cell weight); type: cell-based, Houttuynia cordata; conditions: elicitor treatment
Description: On the 14th day of the culture, the cell suspension medium was supplemented with 0.2-0.4 and 0.8 mM MeJA or SA, and the suspensions were subjected to additional incubation for 1, 2, and 3 days. After the incubation periods of H. cordata cell suspension cultures were completed, the cells were passed through a filter, and the cultures were terminated. Subsequently, cells from all groups were lyophilized. The weights of the lyophilized cells were measured and recorded.

**Q.** Which “amount of RNA obtained from nutrient medium EVs compared to the control group” value [1] does the source give for O=C(O)c1ccccc1O [SA, Salicylic acid] here?
**A.** The value was “did not result in a significant increase”.

**Q.** And the “quantity of H. cordata cell suspensions (lyophilized cell weight) compared to the control group” value [2]?
**A.** The value was “No statistically significant difference”.

**Q.** Which “amount of small RNA obtained” value ([1]; 0.2 mM MeJA for 72 hours) does the source give for CC/C=C\CC1C(=O)CCC1CC(=O)OC (stereo not drawn) [MeJA, Methyl jasmonate] here?
**A.** The value was 3000 ng/µL.

**Q.** What about the “amount of small RNA relative to the control group” value ([1]; 0.2 mM MeJA for 72 hours) of the same compound?
**A.** Its value is 1.9 times.

**Q.** And the “amount of RNA obtained from nutrient medium EVs compared to the control group” value [1]?
**A.** Its value is “led to an increase”.

**Q.** And the “quantity of H. cordata cell suspensions (lyophilized cell weight) compared to the control group” value [2]?
**A.** The value was “No statistically significant difference”.
